Details: Liquid

CCC(O)CC [3-pentanol]
speed of sound [m/s]
Details | 303.15 K | 313.15 K | 323.15 K | 333.15 K | 343.15 K | 353.15 K | 363.15 K | 373.15 K
100 kPa | 1234.7 | 1194.7 | 1155.2 | 1115.9 | 1076.8 | 1036.7 | 997.3 | 957.2
10000 kPa | 1294 | 1257 | 1219.2 | 1182.2 | 1146.9 | 1110.4 | 1075.3 | 1038.9
20000 kPa | 1348.2 | 1313 | 1277.9 | 1243.1 | 1209.7 | 1176.2 | 1143.2 | 1109.6
30000 kPa | 1397.7 | 1364.7 | 1331 | 1298.2 | 1266.6 | 1234.1 | 1203.5 | 1171.5
40000 kPa | 1443.6 | 1411.9 | 1380.2 | 1348.6 | 1318.2 | 1287.8 | 1258.2 | 1228.3
50000 kPa | 1486.9 | 1456 | 1425.8 | 1395.9 | 1366.4 | 1337.3 | 1308.3 | 1280.1
60000 kPa | 1526 | 1498.1 | 1468.5 | 1439.4 | 1411.1 | 1383.1 | 1355.1 | 1328.2
70000 kPa | 1564.7 | 1537.4 | 1508.9 | 1480.7 | 1453.1 | 1425.8 | 1399.6 | 1373.1
80000 kPa | 1600.5 | 1574.5 | 1547.2 | 1519.8 | 1492.9 | 1466.6 | 1440.8 | 1415
90000 kPa | 1636.4 | 1610.2 | 1583.6 | 1556.9 | 1530.7 | 1505 | 1479.7 | 1454.6
100000 kPa | 1668.2 | 1644.1 | 1618.6 | 1592.2 | 1566.6 | 1541.4 | 1516.9 | 1492.5

— the NIST ThermoML archive (doi:10.1016/j.jct.2005.10.002)
